Measurements from ChEMBL document CHEMBL1149361, “Synthesis, biochemical evaluation and rationalisation of the inhibitory activity of a range of 4-substituted phenyl alkyl imidazole-based inhibitors of the enzyme complex 17alpha-hydroxylase/17,20-lyase (P450(17alpha))” (Bioorg Med Chem Lett, 2006).

Columns and labels:
[1] = target: T1, Steroid 17-alpha-hydroxylase/17,20 lyase (Rattus norvegicus, UniProt P11715); assay: Inhibition of rat testis 17-alpha-hydroxylase component of P450-17alpha at 10 uM
T1 sequence (P11715 whole entry): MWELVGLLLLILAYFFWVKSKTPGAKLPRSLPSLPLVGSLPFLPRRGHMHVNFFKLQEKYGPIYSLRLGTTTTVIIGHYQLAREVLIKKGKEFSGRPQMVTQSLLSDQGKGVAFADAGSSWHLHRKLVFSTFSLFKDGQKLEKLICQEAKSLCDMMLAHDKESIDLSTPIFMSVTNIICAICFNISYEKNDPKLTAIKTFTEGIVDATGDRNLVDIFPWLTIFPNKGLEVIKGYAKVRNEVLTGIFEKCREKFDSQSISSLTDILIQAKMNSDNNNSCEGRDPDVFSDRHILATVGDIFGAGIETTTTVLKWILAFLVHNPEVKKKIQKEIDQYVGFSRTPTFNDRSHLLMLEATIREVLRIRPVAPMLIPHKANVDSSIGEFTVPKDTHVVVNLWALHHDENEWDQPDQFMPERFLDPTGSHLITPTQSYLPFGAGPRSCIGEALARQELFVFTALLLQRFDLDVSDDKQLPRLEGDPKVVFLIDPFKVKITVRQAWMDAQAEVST

[2] = target: T1, Steroid 17-alpha-hydroxylase/17,20 lyase; assay: Inhibition of rat testis 17,20 lyase component of P450-17alpha at 10 uM
[3] = target: T1, Steroid 17-alpha-hydroxylase/17,20 lyase; assay: Inhibition of rat testis 17,20 lyase component of P450-17alpha
[4] = target: T1, Steroid 17-alpha-hydroxylase/17,20 lyase; assay: Inhibition of rat testis 17-alpha-hydroxylase component of P450-17alpha

| inhibition at 10 µM [1] | inhibition at 10 µM [2] | IC50 [3] | IC50 [4] | SMILES |
| --- | --- | --- | --- | --- |
| 49.3% | 76.2% | 2.85 µM | 16.6 µM | Brc1ccc(Cn2ccnc2)cc1 |
| 71% | 80.8% | 0.55 µM | 5.85 µM | Clc1ccc(CCCn2ccnc2)cc1 |
| 40.8% | 73.2% | 1.96 µM | 27.8 µM | Fc1ccc(CCCn2ccnc2)cc1 |
| 37.5% | 61.5% | – | 30.7 µM | Brc1ccc(CCn2ccnc2)cc1 |
| 22.5% | 45.1% | – | 120 µM | Fc1ccc(CCn2ccnc2)cc1 |
| 20.5% | 51% | 11.3 µM | 96.5 µM | Fc1ccc(Cn2ccnc2)cc1 |
| 28.4% | 57.4% | – | 49.6 µM | Clc1ccc(CCn2ccnc2)cc1 |
| 23.4% | 40% | 6.14 µM | 30.9 µM | c1ccc(CCCn2ccnc2)cc1 |
| 10.6% | 6.36% | – | – | c1ccc(CCn2ccnc2)cc1 |
| 70.2% | 86.3% | 0.33 µM | 2.95 µM | Brc1ccc(CCCn2ccnc2)cc1 |
| 45.7% | 73.7% | 4.94 µM | 29.8 µM | Clc1ccc(Cn2ccnc2)cc1 |

| SMILES | inhibition at 10 µM [1] | inhibition at 10 µM [2] | IC50 [3] | IC50 [4] |
| --- | --- | --- | --- | --- |
| c1ccc(Cn2ccnc2)cc1 | 13.5% | 12.6% | 50.9 µM | 154 µM |
| CC(=O)N1CCN(c2ccc(OCC3COC(Cn4ccnc4)(c4ccc(Cl)cc4Cl)O3)cc2)CC1 (stereo not given) [KETOCONAZOLE] | 61.5% | 78.7% | – | – |
